Assay results published in patent US20080318775A1, “Safening of pesticides with cyclopropenes” (priority 2007, published 2008).
Read-outs that look alike come from different tables or passages of the source.

Assays:
[1] = tested on: GLYPHOSATE-resistant soybeans; conditions: in vivo
[2] = tested on: GLYPHOSATE-resistant soybeans; experiment: Plant height of soybeans sprayed with 2% GLYPHOSATE with or without 1-MCP
[3] = tested on: GLYPHOSATE-resistant soybeans; conditions: in vivo; remark: listed apart in the source
[4] = tested on: GLYPHOSATE-resistant soybeans; experiment: Plant height of soybeans sprayed with 0.05% PHYSAN 20 fungicide/antimicrobial agent with or without 1-MCP; type: in vivo; conditions: 10 ppm 1-MCP with 0.05% PHYSAN 20; plant height after 21 days
[5] = tested on: GLYPHOSATE-resistant soybeans; experiment: Plant height of soybeans sprayed with 0.5% GLYPHOSATE with or without 1-MCP

CC1=CC1 [1-MCP, 1-methylcyclopropene]
Effect on setback caused by the insecticide (in words) [1]: able to mediate some of the setback caused by the insecticide
Effect on plant height / effect of the herbicide (in words) ([2]; 10 ppm 1-MCP with 2% GLYPHOSATE, with or without 0.1% Quillaja Saponin adjuvant, plant height after 21 days): improved the height
Effect on the negative effect of the fertilizer on plant growth (in words) [3]: able to alleviate some of that effect
Effect compared to the fungicide-treated plants (in words) [4]: positive effect
Effect on growth reduction caused by the herbicide (in words) ([5]; 10 ppm 1-MCP with 0.5% GLYPHOSATE, plant height after 21 days): able to prevent the growth reduction caused by the herbicide

CNC(=O)Oc1cccc2ccccc12 [CARBARYL, reference compound]
Plant Height [1]: 112.8

O=C(O)CNCP(=O)(O)O [GLYPHOSATE, reference compound]
Plant Height ([2]; greenhouse, sprayed to run off at second true leaves, 2% GLYPHOSATE, 10 ppm 1-MCP (as α-cyclodextrin complex), adjuvant 0.1% Quillaja Saponin, 21 days after spray, untreated control 126): 112.9
Plant Height ([5]; greenhouse, sprayed to run off at second true leaves, 0.5% GLYPHOSATE, 10 ppm 1-MCP (as α-cyclodextrin complex), adjuvant 0.1% Quillaja Saponin, 21 days after spray, untreated control 126): 112.1
